These results are taken from US9096607B2, “Tumor necrosis factor inhibitors” (THE TRUSTEES OF THE UNIVERSITY OF PENNSYLVANIA, priority 2005, dated 2015).

Test [1] relates to L929 cells. As to the kind of experiment: Inhibition of TNF-α mediated cytolysis of L929 cells (Alamar Blue). Format: cell-based, murine. The note with it: TNF-α 100 pg/mL, actinomycin D 1 μM. The source says: L929 cultured murine fibroblasts cells were obtained from American Type Culture Collection (Manassas, Va.). Tissue culture reagents were from Invitrogen or Sigma-Aldrich. TNF-α and Actinomycin D were from Sigma-Aldrich. Alamar Blue reagents (Cell Titer Blue™) were from Promega. The test compounds I-1 through I-16, II-1 through II-8, and III-1 through III-3 were obtained commercially or can be prepared as described above. The test compounds were individually dissolved in dimethylsulfoxide (DMSO). The test compounds were maintained at 4° C. when not in use. Other reagents were high-purity (ACS-grade, HPLC-grade, MilliQ water, or similar).
Stock L929 cells were grown on tissue culture plastic in complete DMEM (Dulbecco's Modified Eagles Medium) supplemented with 10% FBS (Fetal Bovine Serum), NEAA (non-essential amino acids), and glutamine. L929 cells were plated using the same medium on 96-well tissue culture plates at high density (i.e., ˜4×10^4 cells/well, or similar) before use.
Approximately 20 h after plating, the L929 cells on 96-well plates were re-fed with fresh medium containing one of the test compounds in a concentration selected from 100 μM, 50 μM, 25 μM as a “pre-treatment.” Approximately 30-60 min later, samples were treated with an additional amount of test compound (in the same amount and at the same concentration as the pre-treatment) prepared in medium containing TNF-α (200 pg/mL), and actinomycin D (2 μM). The final concentration of TNF-α in assays was 100 pg/mL. The final concentration of actinomycin D in assays was 1 μM. The plates were incubated for an additional 22-23 h, the Alamar Blue assay reagents were added and metabolic cell viability was determined from reduction of a fluorogenic Alamar Blue derivative.
The temperature was maintained at 37° C. with 5% CO2 and humidified. The metabolic viability was measured 1-2 h after addition of assay reagents/Alamar Blue derivative using TECAN SaFire fluorescence plate reader (Tecan Group Ltd., Maennedorf, Switzerland).
Inhibition of TNF-α induced cytolysis by a test compound (X) at a given concentration (y) was calculated as follows: […]
(Alamar Blue is a resazurin reagent that responds to reducing activity.)

In test [2] the test system is TNF-α signaling in L929 cells. As to the kind of experiment: Inhibition of TNF-α signaling in L929 cells (western blot). It is filed as cell-based, murine. The note with it: 2 h pretreatment, TNF-α 20 ng/mL. As to the method:
The effect of compound I-9 on TNF-α signaling was examined in L929 cells (American Type Culture Collection, Manassas, Va.). Cells were cultured in RPMI (Invitrogen) containing 5% fetal bovine serum. Cells (1×10^6/well) were cultured in 6-well plates for 12 h, treated with or without small molecule for 2 h, and then stimulated with TNF-α at 20 ng/mL for the indicated periods. Cells were then washed with ice-cold phosphate-buffered saline and lysed with lysis buffer. Cell lysates ([…]) were separated by 12% SDS-PAGE, electroblotted onto nitrocellulose membrane (Osmonics, Westborough, Mass.), and probed with anti-phospho-IκBα, anti-IκBα, anti-phospho-p38, anti-p38, and anti-β-actin antibodies (Cell Signaling Technology, Inc., Beverly, Mass.) and developed using an enhanced chemiluminescence (ECL) system (Amersham Biosciences, Piscataway, N.J.).
In general terms: In western blotting, separated proteins are transferred to a membrane and probed.

The test system of test [3] is TNF-α signaling in THP1 cells. As to the kind of experiment: Inhibition of TNF-α signaling in THP1 cells (western blot). It is filed as cell-based, Human. The note with it: 2 hr pretreatment. As to the method:
THP1 cells (Human acute monocytic leukemia cell line, American Type Culture Collection, Manassas, Va.) were cultured in RPMI with the supplement of 50 mM HEPES, 1 mM Na Pyruvate, 50 μM of 2-ME, 2.5 mg/mL of glucose, […] of gentamicin and 10% of FBS. Cells were cultured in 12-well plate at a density of 6×10^5/well with supplement of 100 ng/mL PMA. Cells were plated 72 hrs to differentiate. Cells were then pretreated with or without small molecule for 2 hr, followed by treatment with TNF-α at 20 ng/mL at the indicated periods. Cells were then lysed and analyzed by western blotting in the same manner as described above for L929 cells.

Test [4] has as its system collagen induced arthritis. As to the kind of experiment: Collagen induced arthritis in mice. Format: in vivo, mouse. The note with it: DBA/1 mice. As to the method:
Activity of compound I-9 was studied in a mouse collagen induced arthritis system, which is a model for human rheumatoid arthritis. Six to eight weeks old male DBA/1 mice were immunized by multiple intradermal injections of 100 μg chicken type II collagen (Sigma Chemical Co., St. Louis, Mo.) in 100 μl of 0.1 M acetic acid emulsified in an equal volume of complete Freund's adjuvant and were then challenged with the same antigen preparation i.p. on the 21st day. Animals were injected daily with the compound I-9 at different dosages (2-4 mg/kg/day) beginning on day 21 and animals were examined physically every other day in a blinded manner. In this model, disease typically develops 7-10 days after the second immunization, and the severity of disease can be determined by physical examination, joint histochemistry, or both techniques. […] Male DBA/1 mice (6-8-wk-old) were purchased from Jackson Laboratory (Bar Harbor, Me.) and housed in University of Pennsylvania Animal Care Facilities. Animals were maintained in accordance with guidelines of Institutional Animal Care and Use Committee (IACUC) of the University of Pennsylvania. For CIA induction, mice were immunized by multiple intradermal injections of 100 μg chicken type II collagen (Sigma Chemical Co., St. Louis, Mo.) in 100 μL of 0.1M acetic acid emulsified in an equal volume of complete Freund's adjuvant. Mice were challenged with the same antigen preparation i.p. at the 21st day. Mice were injected daily with the test compound at different dosage (2 and 4 mg/kg of body weight) from day 21. Disease develops 7-10 day after the second immunization. Mice were examined physically every other day in a blind manner. Their paws were scored individually as follows: 0=normal; 1=Erythema and mild swelling confined to the ankle joint or toes; 2=Erythema and mild swelling extending from the ankle to the midfoot or ankle joint; 3=Erythema and moderate swelling extending from the ankle to the metatarsal joints; and 4=Erythema and severe swelling encompass the ankle, foot, and digits. The maximum disease score per foot is 4, and the maximum disease score per mouse is 16. For histological examination of the joint, mice were killed at different time points, and their paws were collected and fixed in 10% formalin. The paws were then decalcified in hydrochloric acid, embedded in paraffin, sectioned, and stained with hematoxylin and eosin (H&E).

As for `CC(=O)Oc1ccc(C(C)(c2ccc(OC(C)=O)cc2)c2ccc(OC(C)=O)cc2)cc1` [Compound I-9, 1,1,1-Tris-(4-acetoxyphenyl)ethane], the “% Inhibition at: 25 μM” value in test [1] (25 μM compound) was determined as 37.2%. In test [1] (50 μM compound), the “% Inhibition at: 50 μM” value came out at 65.2%. Moreover, the “% Inhibition at: 100μM” value in test [1] (100 μM compound) stood at 50.9%. Besides, in test [2], the “production of phospho-IκBα following TNF-α treatment” value is listed as “reduced” and the “production of phospho-p38 following TNF-α treatment” value is recorded as “reduced”. In test [3], the “TNF-α mediated I-kBα phosphorylation” value is on record as “inhibited” and the “TNF-α mediated p38 phosphorylation” value is recorded as “inhibited”. For the same compound, the “clinical symptoms of arthritis” value in test [4] (2-4 mg/kg/day daily from day 21, vs untreated or control groups) is “dose dependent decrease”. Also, in test [4] (treated), the cartilage destruction entry is listed as “prevented”; the “infiltration, histological analysis of ankle joints” value is listed as “markedly reduced”; the “synovial tissue, histological analysis of ankle joints” value is “less synovial tissue”.
